16 compounds from ChEMBL document CHEMBL4665825, “Paliasanines A-E, 3,4-Methylenedioxyquinoline Alkaloids Fused with a Phenyl-14-oxabicyclo[3.2.1]octane Unit from Melochia umbellata var. deglabrata” (J Nat Prod, 2020) can be followed below.

The test system of one experiment is KB. Description: Antiproliferative activity against human KB cells assessed as reduction in cell viability after 72 hrs by SRB assay. The class given is functional, cell-based.
Experiment [1] can be described thus: Antiproliferative activity against human KB-VIN cells assessed as reduction in cell viability after 72 hrs by SRB assay. Format: functional, cell-based. Particulars: KBVIN. (In general: Sulforhodamine B stains cellular protein and so reports cell mass.)
The subject of a further experiment is A549. Description: Antiproliferative activity against human A549 cells assessed as reduction in cell viability after 72 hrs by SRB assay. Format: functional, cell-based. Particulars: A549, 72 h.
The next experiment has as its system MCF7. Put plainly: Antiproliferative activity against human MCF7 cells assessed as reduction in cell viability after 72 hrs by SRB assay. The class given is functional, cell-based. The settings on record: MCF7, 72 h.
Experiment [2] relates to MDA-MB-231. Description: Antiproliferative activity against human MDA-MB-231 cells assessed as reduction in cell viability after 72 hrs by SRB assay. The settings on record: MDA-MB-231, 72 h. The class given is functional, cell-based.
For experiment [3], the system named is Human immunodeficiency virus 1. Description: Antiviral activity against HIV-1 NL4-3 infected in human MT4 cells measured on day 3 by Nano-Glo luciferase assay. The class given is functional, organism-based. The settings on record: time 3.0 day.
Experiment [4] is described as follows: Selectivity ratio of IC50 for antiproliferative activity against human KB cells to IC50 for antiproliferative activity against KB-VIN cells. Format: functional.
Experiment [5] relates to MDA-MB-231. Description: Induction of cell cycle arrest in human MDA-MB-231 cells assessed as accumulation at S phase at 21 uM measured after 24 hrs by propidium iodide staining based flow cytometry analysis. The class given is functional. A general note: Flow cytometry measures light scatter and fluorescence of single cells or particles in a stream.

pIC50: −log10 of the molar value. Activity calls are given as the source filed them. The calls are words filed in the database; no cut-off is given here.

Turning to `COc1ccc(OC)c([C@@]2(O)c3ccc4[nH]c(C)c(OC)c(=O)c4c3[C@@H]3CC[C@H]2O3)c1`, the pIC50 (commonly the negative decadic logarithm of the IC50, by convention in mol/L) with KB is less than 5.00; in experiment [1] it was less than 5.00; in the experiment with A549, 5.23; in the experiment with MCF7 it was 5.09; in the experiment with MDA-MB-231 [2], less than 5.00.
As to `CC(=O)/C=C/[C@]1(O)C(C)(C)C[C@H](O)C[C@@]1(C)O`, the pIC50 (with KB; in experiment [1]; with A549; in the experiment on MCF7; in the experiment with MDA-MB-231 [2]) was less than 5.00 each time.
For the compound `Cc1nc2ccc3c(c2c2c1OCO2)[C@@H]1CC[C@H](O)[C@@]3(c2ccccc2)O1`, the pIC50 (with KB; in experiment [1]; in the experiment with A549; in the experiment on MCF7; in the experiment on MDA-MB-231 [2]) was less than 5.00 throughout. The result in experiment [3] was inactive.
Regarding `CCCCCCCCc1ccc(OC)c2[nH]c(C)c(OC)c(=O)c12`, the pIC50 (in the experiment with KB; in experiment [1]; in the experiment with A549; with MCF7; in the experiment on MDA-MB-231 [2]) was less than 5.00 in each case.
As for `COc1ccccc1[C@@]1(O)c2ccc3[nH]c(C)c(OC)c(=O)c3c2[C@@H]2CC[C@H]1O2`, the pIC50 with KB was less than 5.00; in experiment [1] it was less than 5.00; in the experiment on A549 it was 5.18; with MCF7 it was 5.10; in the experiment on MDA-MB-231 [2], less than 5.00.
Consider `COc1ccc(OC)c([C@]2(O)c3ccc4nc(C)c5c(c4c3[C@@H]3CC[C@H]2O3)OCO5)c1`, for which the negative logarithm of the IC50 (pIC50) (in the experiment on KB; in experiment [1]; in the experiment with A549; in the experiment on MCF7; with MDA-MB-231 [2]) was less than 5.00 in each case.
Turning to `CC(=O)O[C@H]1C(=O)[C@@]2(C)[C@H]([C@H](OC(=O)c3ccccc3)[C@]3(O)C[C@H](OC(=O)[C@H](O)[C@@H](NC(=O)c4ccccc4)c4ccccc4)C(C)=C1C3(C)C)[C@]1(OC(C)=O)CO[C@@H]1C[C@@H]2O` [PACLITAXEL], the pIC50 was 8.11 in the experiment on KB, 5.63 in experiment [1], 8.19 in the experiment with A549 and 7.87 in the experiment with MCF7.
With `CCCCCCCC[C@H]1CCC(=O)c2[nH]c(C)c(OC)c(=O)c21`, the pIC50 with KB was 4.75; in experiment [1], 5.07; with A549, 5.08; in the experiment on MCF7, 5.19; with MDA-MB-231 [2], 5.17. Moreover, the “Ratio IC50” value in experiment [4] worked out at 2. Besides, the outcome in the experiment with MDA-MB-231 [5] was Active.
On to `CC1(C)C[C@H](O)C[C@@]2(C)OC(=O)C=C12` [LOLIOLIDE], for which the negative-log IC50 (pIC50) (in the experiment on KB; in experiment [1]; in the experiment on A549; with MCF7; with MDA-MB-231 [2]) was less than 5.00 each time.
Regarding `CC[C@@H](C)[C@@H]1NC(=O)[C@@H](NC(=O)[C@H](Cc2ccccc2)N(C)C)[C@H](C(C)C)Oc2ccc(cc2)/C=C\NC1=O`, the pIC50 with KB is less than 5.00; in experiment [1], less than 5.00; with A549 it was 5.02; with MCF7 it was less than 5.00; in the experiment with MDA-MB-231 [2], less than 5.00.
`COc1ccccc1[C@@]1(O)c2ccc3nc(C)c4c(c3c2[C@@H]2CC[C@H]1O2)OCO4`: the pIC50 (in the experiment on KB; in experiment [1]; with A549; in the experiment with MCF7; in the experiment on MDA-MB-231 [2]) was less than 5.00 throughout. Further, the outcome in experiment [3] was inactive.
Take `COc1ccc(OC)c([C@@]2(O)c3ccc4nc(C)c5c(c4c3[C@@H]3CC[C@H]2O3)OCO5)c1`: the pIC50 (with KB; in experiment [1]; in the experiment on A549; in the experiment on MCF7; in the experiment on MDA-MB-231 [2]) was less than 5.00 each time. Moreover, the result in experiment [3] was inactive.
Consider `CC(C)[C@@H]1NC(=O)[C@@H](NC(=O)/C=C/c2ccccc2)[C@H](C(C)C)Oc2ccc(cc2)/C=C\NC1=O`, for which the pIC50 (with KB; in experiment [1]; in the experiment on A549; with MCF7; with MDA-MB-231 [2]) was less than 5.00 in each case.
With `COc1ccccc1[C@]1(O)c2ccc3nc(C)c4c(c3c2[C@@H]2CC[C@H]1O2)OCO4`, the pIC50 (in the experiment on KB; in experiment [1]; in the experiment with A549; in the experiment on MCF7; with MDA-MB-231 [2]) was less than 5.00 each time.
For the compound `CC1=CC(=O)CC(C)(C)[C@@H]1CC[C@H](C)O`, the pIC50 (with KB; in experiment [1]; in the experiment with A549; in the experiment with MCF7; in the experiment with MDA-MB-231 [2]) was less than 5.00 throughout.
With `CC1=CC(=O)CC(C)(C)[C@@]1(O)/C=C/[C@@H](C)O` [BLUMENOL A], the pIC50 (in the experiment on KB; in experiment [1]; in the experiment on A549; in the experiment with MCF7; in the experiment with MDA-MB-231 [2]) was less than 5.00 each time.
